This is an account of results in patent publication US4900749A, “Isoprenoidamine compounds useful as antiulcer agents” (Shionogi & Co., Ltd., priority 1985, dated 1990).

Assay [1] deals with lesion formation. Put plainly: inhibition of 60% ethanol/150 mM hydrochloric acid-induced stomach lesion formation (Experiment 1). The format is in vivo, Male SD rats. The settings on record: Rattus norvegicus, 1 h. The method, then: Male SD rats, weighing 200-300 g, were allowed to fast for 24 hours. One milliliter of 60% ethanol (v/v) in 150 mM hydrochloric acid was given orally 1 hour after oral or intraperitoneal administration of test compound as a suspension in 5% gum arabic, and the animals were killed with an overdose of ether 1 hour later. The stomachs were removed and opened along the greater curvature. The total length (mm) of each lesion was measured for use as the lesion index and inhibition (%) of lesion formation by the test compound was calculated by comparing with that of 5% gum arabic as control.
Geranylgeranylacetone (hereinafter abbreviated as GGA) was employed as a reference compound.

Assay [2] deals with acid secretion. Kind of assay: inhibition of histamine-stimulated gastric acid secretion in perfused stomach (Experiment 2). The format is in vivo, Male Jcl SD rats. The settings on record: intraduodenal, during 90 minutes after administration, histamine dihydrochloride 3 mg/kg/hr. The method, then:
Male Jcl SD rats (body weight; about 300 g) were fast for 24 hours and anesthetized by urethane. Cannula was put into the trachea and into a jugular vein. After midline laparotomy, perfusion cannulae were introduced into the stomach through the pylorus and the esophagus. The animal was perfused with saline (1 ml/min) at 37° C. through the esophagus cannula. Perfusate was collected every 15 minutes through the pylorus cannula and titrated with 0.01N sodium hydroxide to measure acid secretion. Histamine dihydrochloride (3 mg/kg/hr) was infused through the jugular vein cannula and the test compound was administered intraduodenaly 90 minutes later. Acid output in perfusate every 15 minutes was measured in the same manner as described above. The rate of maximum inhibition (%) of acid secretion was calculated during 90 minutes after administration of the test compound compared with the acid output just before administration of the test compound.

The mark [3] stands for this setting: ip, Intraperitoneal administration.

Molecule `CC(C)=CCCC(C)=CCCC(C)=CCCC(C)=CCNC(=O)N1CCCCC1` [Compound I-56] had an inhibition in vivo at 20 mg/kg in assay [1] (setting [3]) of 79.4%.

`CC(C)=CCCC(C)=CCCC(C)=CCCC(C)=CCNC(=O)c1ccccc1` [Compound I-9] had an inhibition in vivo at 20 mg/kg in assay [1] (setting [3]) of 64.2%.

`CC(C)=CCCC(C)=CCCC(C)=CCCC(C)=CCNC(=O)c1ccc[nH]1` [Compound I-26] came in with an inhibition in vivo at 20 mg/kg in assay [1] (Oral administration) of 9.6%. This molecule came in with an inhibition in vivo at 10 mg/kg in assay [1] (setting [3]) of 59.1%.

Turning to `CC(=O)NCC=C(C)CCC=C(C)CCC=C(C)CCC=C(C)C` [Compound I-2, N-(3,7,11,15-Tetramethyl-2,6,10,14-hexadecatetraenyl)acetamide], in assay [1] (Oral administration), testing at 20 mg/kg gave an inhibition in vivo of 46.6%. The inhibition in vivo at 10 mg/kg in assay [1] (setting [3]) stood at 71.7%.

Take `CC(C)=CCCC(C)=CCCC(C)=CCCC(C)=CCNC(=O)CC#N` [Compound I-36]: the inhibition in vivo at 20 mg/kg was 56.4% in assay [1] (Oral administration) and 72.2% in assay [1] (setting [3]).

In assay [1] (setting [3]), `CC(C)=CCCC(C)=CCCC(C)=CCCC(C)=CCNC(=O)Cc1c[nH]cn1` [Compound I-31] had an inhibition in vivo at 20 mg/kg of 91%.

On to `CC(C)=CCCC(C)=CCCC(C)=CCCC(C)=CCNC(=O)c1cccnc1` [Compound I-21], for which the inhibition in vivo at 20 mg/kg in assay [1] (Oral administration) was found to be 64.5%; in assay [1] (setting [3]) it was 99%.

With `COCC(=O)NCC=C(C)CCC=C(C)CCC=C(C)CCC=C(C)C` [Compound I-4], the inhibition in vivo at 20 mg/kg in assay [1] (Oral administration) was determined as 29.3%; in assay [1] (setting [3]), 88.4%.

For the molecule `CC(C)=CCCC(C)=CCCC(C)=CCCC(C)=CCNC(=O)c1cccs1` [Compound I-24], the inhibition in vivo at 20 mg/kg in assay [1] (Oral administration) is 11.8%. Moreover, in assay [1] (setting [3]), the inhibition in vivo at 10 mg/kg was 62.1%.

The molecule `CC(C)=CCCC(C)=CCCC(C)=CCCC(C)=CCNC(=O)c1cnccn1` [Compound I-28] yielded an inhibition in vivo at 20 mg/kg in assay [1] (setting [3]) of 80.4%.

With `CC(C)=CCCC(C)=CCCC(C)=CCCC(C)=CCNC(N)=O` [Compound I-57], at 10 mg/kg the inhibition in vivo in assay [1] (Oral administration) was 36.2%. The molecule also yielded an inhibition in vivo at 20 mg/kg in assay [1] (setting [3]) of 84%.

`CC(C)=CCCC(C)=CCCC(C)=CCCC(C)=CCNC(=O)Nc1ccccc1` [Compound I-82] registered an inhibition in vivo at 20 mg/kg in assay [1] (setting [3]) of 62.7%.

In assay [1] (setting [3]), `CC(C)=CCCC(C)=CCCC(C)=CCCC(C)=CCNC(=O)Cc1ccccc1` [Compound I-13] returned an inhibition in vivo at 20 mg/kg of 65.3%.

`CC(C)=CCCC(C)=CCCC(C)=CCCC(C)=CCNC(=O)NCCCN1CCOCC1` [Compound I-65]: at 20 mg/kg the inhibition in vivo in assay [1] (setting [3]) was 35.5%.

Take `CC(C)=CCCC(C)=CCCC(C)=CCCC(C)=CCNC(=O)c1ccc([N+](=O)[O-])cc1` [Compound I-18]: the inhibition in vivo at 20 mg/kg in assay [1] (setting [3]) turned out to be 75.1%.

For `CC(C)=CCCC(C)=CCCC(C)=CCCC(C)=CCNC(=O)Cc1cccnc1` [Compound I-30], the results for the inhibition in vivo at 20 mg/kg in assay [1] (Oral administration) and in assay [1] (setting [3]) were 85.1% and 93.6%, respectively. The “Inhibition (%): rate of maximum inhibition of acid secretion” value came to 57.4% in assay [2] (20 mg/kg) and 99.5% in assay [2] (50 mg/kg).

Consider `CC(C)=CCCC(C)=CCCC(C)=CCCC(C)=CCNC(=O)N1CCOCC1` [Compound I-55, 1-[N-(3,7,11,15-Tetramethyl-2,6,10,14-hexadecatetraenyl)carbamoyl]morpholine], for which the inhibition in vivo at 10 mg/kg in assay [1] (Oral administration) came out at 22.2%; in assay [1] (setting [3]), 76.7%. The “Inhibition (%): rate of maximum inhibition of acid secretion” value was 51.1% in assay [2] (20 mg/kg) and 77.7% in assay [2] (50 mg/kg).

On to `CC(=O)CCC=C(C)CCC=C(C)CCC=C(C)CCC=C(C)C` [GGA, Geranylgeranylacetone, reference compound], for which, in assay [1] (Oral administration), the inhibition in vivo at 20 mg/kg came out at 37.7%. In assay [1] (ip, Intraperitoneal administration, 50 mg/kg), this molecule displayed an inhibition in vivo at 50 mg/kg of 81%.

As for `CC(C)=CCCC(C)=CCCC(C)=CCCC(C)=CCNC(=O)N(C)C` [Compound I-81, N,N-Dimethyl-N'-(3,7,11,15-tetramethyl-2,6,10,14-hexadecatetraenyl)urea], the inhibition in vivo at 20 mg/kg was determined as 23.9% in assay [1] (Oral administration) and 78.2% in assay [1] (setting [3]).

For the molecule `CC(C)=CCCC(C)=CCCC(C)=CCCC(C)=CCNC(=O)c1ccccn1` [Compound I-20], the inhibition in vivo at 20 mg/kg was found to be 24.2% in assay [1] (Oral administration) and 83.1% in assay [1] (setting [3]).

In assay [1] (setting [3]), `CC(C)=CCCC(C)=CCCC(C)=CCCC(C)=CCNC(=O)N1CCN(C)CC1` [Compound I-59] gave an inhibition in vivo at 20 mg/kg of 53.3%.

As to `CC(C)=CCCC(C)=CCCC(C)=CCCC(C)=CCNC(=O)c1ccncc1` [Compound I-22, N-(3,7,11,15-Tetramethyl-2,6,10,14 hexadecatetraenyl)isonicotinamide], the inhibition in vivo at 20 mg/kg in assay [1] (Oral administration) amounted to 86.1%; in assay [1] (setting [3]), 85.6%.

For `CC(C)=CCCC(C)=CCCC(C)=CCCC(C)=CCNC(=O)N1CCN(Cc2ccc3c(c2)OCO3)CC1` [Compound I-62], testing at 20 mg/kg in assay [1] (setting [3]) gave an inhibition in vivo of 46.1%.

As to `CC(C)=CCCC(C)=CCCC(C)=CCCC(C)=CCNC(=O)Cc1ccccn1` [Compound I-29], the inhibition in vivo at 10 mg/kg in assay [1] (setting [3]) turned out to be 64.3%.

`CC(C)=CCCC(C)=CCCC(C)=CCCC(C)=CCNC(=O)c1ccco1` [Compound I-12] registered an inhibition in vivo at 10 mg/kg in assay [1] (setting [3]) of 39.4%.

As to `CC(C)=CCCC(C)=CCCC(C)=CCCC(C)=CCNC(=O)NCc1cccnc1` [Compound I-71], the inhibition in vivo at 20 mg/kg in assay [1] (Oral administration) was 44.2%; in assay [1] (setting [3]) it was 68.5%.
